Paper PMC10761730, “Serglycin secreted by late-stage nucleus pulposus cells is a biomarker of intervertebral disc degeneration” (Nature Communications, 2024)

Biological target: T1, Serglycin (SRGN) (Homo sapiens, UniProt P10124)
T1 construct: endogenous protein in primary human nucleus pulposus cells; CETSA with Western blot read-out
T1 sequence (P10124 28-158): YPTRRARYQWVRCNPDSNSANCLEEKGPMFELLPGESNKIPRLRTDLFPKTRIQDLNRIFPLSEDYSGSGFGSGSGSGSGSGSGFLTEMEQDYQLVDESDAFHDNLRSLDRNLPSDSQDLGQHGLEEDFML
Experiment: cellular thermal shift assay (CETSA), Western blot
Type: cell-based
Settings: intact NPCs pretreated with DAP for 12 h, heated 3 min, freeze-thaw lysis; melt curve only in figure

SMILES: O=c1ccc2ccc(O)c(O)c2o1 [Daphnetin]
- cellular thermal shift assay (CETSA), Western blot: CETSA) of DAP and SRGN proteins also suggested that DAP could bind to SRGN
